Test system: rat
Test: Established adjuvant arthritis (adjuvant-induced polyarthritis in the rat)
Format: in vivo, female Lewis rats
Conditions: 50 mg/kg b.i.d.
Experimental: The procedures for this test have been described in detail by R. Vinegar, J. F. Truax, J. L. Selph. A. Lea, and P. R. Johnston (J. Immunopharmacol. 1:497-520, 1979). The rats used in these studies were female Lewis rats whose starting weight was 190±10 g. Arthritic rats were assigned to treatment groups consisting of six animals each. Fed rats were dosed by oral gavage starting on day 21 post adjuvant injection; therapy was continued until day 28. The incidence and severity of arthritic lesions were assessed using a modification of the scoring procedure described by H. L. F. Currey and M. Ziff (J. Exp. Med. 121:185-203, 1968). Briefly, the bilateral joints were scored for erythema, edema, and ankylosis as outlined below:
The maximal possible score per rat was 40. Experimental results were analyzed by one-way ANOVA, followed by post hoc comparisons of treatment effects versus untreated arthritic control using the Newman-Keuls test. The percent inhibition of each drug-treated group was calculated from the mean relative to the arthritic control.

## NC(=O)/C=C1\CCc2c(F)cc(F)cc21 [Example 5, (E)-2-(4,6 Difluoro-1-indanylidene)acetamide]
Oral gavage, days 22, 25, and 27, versus untreated arthritic control
  arthritic scores: significantly (p<0.01) lowered arthritic scores
Postmortem on day 27
  Spleen weight: significantly reduced (p<0.01)
  plasma fibrinogen: significantly reduced (p<0.01)

From patent US6124284A, “Bicyclic amide derivatives and their use as muscle relaxants” (Glaxo Wellcome Inc., priority 1998, dated 2000)
